Source: patent US10156560B1, “Locomotive biological machines” (The Board of Trustees of the University of Illinois, priority 2013, dated 2018)
“Also recorded” adds a separate entry of the source.

Legend:
Type in all cases: cell-based
C2C12 myoblasts [1] = assay: Compaction and snapping of collagen-based 3D skeletal muscle strips
Description: C2C12 myoblasts were transfected with pAAV-Cag-Chr2-GFP-2A-Puro with Lipofectamine 2000 (Invitrogen, Carlsbad, Calif.) and grown under puromycin (2.5 μg/mL) selection for 2 weeks. Before cell seeding, bio-bots were positioned beam-down in polymerized holders in a 35-mm cell culture dish and aspirated of excess liquid. A liquid suspension of C2C12 skeletal muscle myoblasts and ECM proteins was added around the pillars of the bio-bot and polymerized via gelation of the matrix proteins. Embedded cells exerted traction forces on the fibrous proteins via integrin attachments to compact the matrix into a muscle strip over time, and the capped pillars acted as a physical anchor for the muscle strip to mimic the in vivo musculoskeletal arrangement in which force transmission occurs from a contracting muscle to bone through a connecting tendon. The ECM was a mixture of i) type I collagen or fibrin and ii) Matrigel™, a composition of laminin, entactin, and type IV collagen. Collagen and fibrin were chosen because naturally-derived hydrogels undergo macro-scale compaction when mixed with cells, leading to a substantially higher cell density and unidirectional cell alignment between the posts. For collagen strips, a cooled suspension of liquid type I collagen from rat tail (0.8, 1.4, or 2.0 mg/mL, BD Biosciences) was mixed with equal parts ice-cold growth medium and neutralized with 0.01 N NaOH. Pelleted cells (1.0-10.0×10^6 cells/mL) were resuspended in ice-cold growth medium and mixed with Matrigel™ (30% v/v, BD Biosciences). Liquid neutralized type I collagen was mixed thoroughly with cells (C2C12 myoblasts (ATCC)) and Matrigel™, and the mixtures were added to each holder. For fibrin muscle strips, an ice-cold cell-matrix solution of Matrigel™ (30% of total cell-matrix volume), fibrinogen (4 mg/mL, Sigma-Aldrich), thrombin from bovine plasma (0.5 U/mg fibrinogen, Sigma-Aldrich), and C2C12s suspended in GM at a concentration of 5×10^6 cells/mL were added to each holder. The post/beam assemblies were then incubated at 37° C. to induce collagen/fibrin polymerization, and growth medium was added to each assembly upon gelation. Time-lapsed compaction was captured with a stereomicroscope (MZ FL III, Leica).
To confirm that gel compaction was caused by traction forces from the cells, muscle strips were treated with 50 μg/mL blebbistatin (FIG. 27A). Blebbistatin blocks myosin II activity in the cells, which prevents inward translation of the traction forces. […] The muscle strips treated with IGF-1 (50 ng/mL) compacted rapidly but snapped near the posts within 24 h (FIG. 27C). Thus, the formation of muscle strips was cell-induced through passive tension around the two posts. […]

C2C12 muscle strips [2] = assay: Lifetime of fibrin muscle strip bio-bots (days until fracture)
Description: Similarly, the lifetime of fibrin muscle strip bio-bots (i.e. days until fracture of the muscle strip) was affected by the presence or absence of 50 ng/mL IGF-1 and/or 1 mg/mL aminocaproic acid. There was a significant increase in the fibrin muscle strip lifetime with the addition of 1 mg/mL aminocaproic acid (25±1.15 days) compared to the control of 10% HS (8.75±7.63).

C2C12 muscle strips [3] = assay: Electrically paced actuation of fibrin-based muscle strips
Description: To externally control muscle contraction and bio-bot locomotion, a custom-designed setup (Bajaj et al., 2011, Integr Biol (Camb) 3(9):897-909) was used to stimulate reproducible contraction of excitable cells within the muscle strip with a bipolar electrical pulse train (FIGS. 30A and 30B). The output from a waveform generator was amplified through an AD797 inverting amplifier. A capacitor C was added in series to minimize electrolysis of the media by converting the square pulse to a biphasic pulse; the system was then treated as an RC circuit (FIG. 30B). A 35-mm culture dish was modified to allow Pt electrodes of diameter 0.762 mm to pass through the lid of the dish. The average resistance of the electrical stimulation medium (DMEM without serum) was calculated by measuring the time constant τ from the oscilloscope and dividing by C for each volume at 23° C. and 37° C. The conductivity of the medium was measured using a pH/Conductivity meter (Orion 4-Star, Thermo Scientific), at 23° C. and 37° C. During stimulation, the bio-bot was placed in 4 mL of warm electrical stimulation medium between the positive and ground electrodes, and a current was applied perpendicular to the long axis, with stimulation frequencies up to 10 Hz and never exceeding more than half of the sampling frequency, per the Nyquist criterion. Bio-bots were stimulated with bipolar electrical pulses of 20 V amplitude (21.6 V/cm field strength) and 50 ms pulse width. Simultaneous imaging was achieved by positioning the dish on the stage of a stereoscope. Top-view movies were acquired with a stereomicroscope with a digital microscope camera at 9.2 fps. Side-view movies were acquired using a camcorder (Handycam DCR-SR65, Sony) at 30 fps. Electrodes were sterilized in 70% ethanol and rinsed with PBS between experiments.
Twitch contractions were observed below 8-10 Hz and tetanus above this upper frequency limit.
A Kelvin-Voigt viscoelasticity model that correlated the observed cyclic displacement to the contractile force was used to extract the active tension generated by IGF-1 supplemented muscle strips in response to electrical stimulation. The active stress generated by the muscle strip was computed as a function of the strain ε(t) and strain rate dε(t)/dt observed in the hydrogel beam with viscosity η. The time-varying displacement data was converted into time-varying strain, and the following equation was used to compute the resulting active stress: […]
The range of active tension during contraction decreased with increasing stimulation frequency, from a dynamic fluctuation of 198.68 μN during 1 Hz stimulation to 109.48 μN during 4 Hz stimulation. The active tension data followed a positive force-frequency relationship in which the magnitude of the active tension exerted by the muscle increased, even while the range of pillar motion decreased.

C2C12 muscle strips [4] = assay: Passive tension force of muscle strips from beam deflection
Description: Using Euler-Bernoulli linear bending theory, a formula was derived relating the observed hydrogel beam deflection to the muscle-generated passive tension force. Assuming negligible rotation in the beam and a small angle approximation, equating the applied moment M to tension P times the moment arm I from the muscle strip to the beam reduced the second-order differential equation to
[formula] where I is the moment of inertia of the rectangular cross-section and y is the horizontal deflection of the beam. Boundary conditions were applied by assuming zero deflection at ends of the beam (L=0) and maximum deflection δmas at the center (L/2).
[formula] Beam dimensions, moment arm, and maximum deflection were averaged from 3 measurements of each device using the Measure Tool in ImageJ (NIH). Solving for P yielded the relation:
Finite element analysis was then used to model and simulate global displacement of the beam and pillars in response to an applied force; the simulated deflection values differed 18-19% from actual measurements.
To determine an optimal matrix system for engineered muscle functionality, the passive tension forces generated by collagen- and fibrin-based cell-matrix systems were compared. In muscle strips comprising the same number of cells, a significant increase in passive tension in those containing fibrin (629.3±8.2 μN) compared to collagen (534.2±5.8 μN) was observed. Advantageously, fibrin polymerizes relatively quickly when compared to other ECM proteins, and it can undergo large deformations without breaking (Liu et al., 2006, Science 313(5787):634; Janmey et al., 2009, J R Soc Interface 6(30):1-10). […]
This significant increase in force production was likely due to a greater number of differentiated myotubes in muscle strips supplemented with IGF-1. A normalized stress in the muscle strips with IGF-1 was calculated by dividing the passive tension by the cross-sectional area of the tissue, which averaged 1.2±0.04 mm^2 (n=9). […]

C2C12 myoblasts [5] = assay: Differentiation, viability (MTS) and proliferation in muscle strips
Description: After 7 days, the myoblasts were induced to differentiate by switching to high-glucose DMEM supplemented with 10% horse serum (Lonza) and 50 ng/mL insulin-like growth factor-1 (IGF-1, Sigma). A protease inhibitor, aminocaproic acid (1 mg/mL, Sigma) was added to the growth and differentiation medium to prevent degradation of the extracellular matrix proteins by the cells. Differentiated, multinucleated myotubes were distributed throughout muscle strips supplemented with IGF-1.
An MTS assay was used to evaluate cell viability over time. Muscle strips comprising […] and supplemented with IGF-1 and aminocaproic acid were incubated with MTS (Promega) and phenazine methosulfate (Sigma-Aldrich) in DMEM without phenol red for 4 h at 37° C. Absorbance of MTS formazan product formation was measured at 490 nm using a Synergy HT microplate reader (BioTek) for four different time points and normalized to day 0 (day of cell seeding). The relative absorbance of muscle strips indicated a viability of cells within the muscle strip of 85.76±10.74% and 79.71±14.78% after days 6 and 9, respectively.

`Cc1ccc2c(c1)C(=O)C1(O)CCN(c3ccccc3)C1=N2` (centres unmarked) [blebbistatin] was tested, and the “compaction of muscle strip” value (C2C12 myoblasts [1]; blebbistatin in medium, 48 hours of culture) was “lack of compaction; also recorded: prevented its compaction”.
`NCCCCCC(=O)O` [aminocaproic acid, ε-aminocaproic acid] was tested, and the “fibrin muscle strip lifetime (days until fracture)” value (C2C12 muscle strips [2]; 1 mg/mL) was 25 ± 1.15 days, the “snapping of collagen muscle strip” value (C2C12 myoblasts [1]; 1 mg/mL in medium) was “remained intact” and the “time muscle strip remained stable” value (C2C12 myoblasts [1]; 1 mg/mL in medium) was > 14 days. For the same molecule, the “snapping of collagen muscle strip” value (C2C12 myoblasts [1]; 1 mg/mL in medium, listed as EAC) was “prevented the muscle strip from snapping”.
With “IGF-1: insulin-like growth factor 1, a potent mitogen” the “range of active tension during contraction” value (C2C12 muscle strips [3]; 1 Hz stimulation) was 198.68 μN, the “range of active tension during contraction” value (C2C12 muscle strips [3]; 4 Hz stimulation) was 109.48 μN and the Output (C2C12 muscle strips [3]; stimulation 1 Hz) was 1.01 ± 0.003 Contractions/s. The Output (C2C12 muscle strips [3]; stimulation 2 Hz) was 2.01 ± 0.01 Contractions/s, the Output (C2C12 muscle strips [3]; stimulation 4 Hz) was 3.95 ± 0.05 Contractions/s and the “increase in passive tension force compared to control without IGF-1” value (C2C12 muscle strips [4]; fibrin-based muscle strips) was 70.7%. For the same molecule, the passive tension force (C2C12 muscle strips [4]; fibrin-based muscle strips supplemented with IGF-1) was 992.7±34.3 μN, the passive stress (C2C12 muscle strips [4]; muscle strips with IGF-1, tension divided by cross-sectional area) was 0.84±0.03 kPa and the “decrease in days until fracture compared to the 1 mg/mL ACA condition” value (C2C12 muscle strips [2]; 50 ng/mL) was 22.0%. The “decrease in days until fracture compared to the control” value (C2C12 muscle strips [2]; 50 ng/mL, control 10% HS) was 51.43%, the “portion of the fibrin-based muscle strip occupied by cells” value (C2C12 myoblasts [5]; 50 ng/mL) was “more than doubled” and the “cell proliferation compared to control muscle strips” value (C2C12 myoblasts [5]; day 9) was “enhanced cell proliferation”.
